From patent publication US20080234233A1, “MEDICAMENT FOR TREATMENT OF NEURODEGENERATIVE DISEASES” (INSTITUTE OF MEDICINAL MOLECULAR DESIGN INC., priority 2002, published 2008)

Tested on: NF-κ B activation
Test: Inhibitory activity of NF-κB activation, luciferase reporter assay under TNF-α stimulation in HepG2
Format: cell-based, human
Settings: HepG2, TNF-α 40 ng/ml, 4 hours; for inhibition at 1 µg/mL / inhibition at 10 µg/mL: Homo sapiens, read-out: Inhibitory rate against NF-κB activation (%)
Protocol: Measurement of Inhibitory Activity of NF-κB activation
Using a transfection reagent (Effectene; QIAGEN), the human hepatoma cell strain HepG2 was transfected with a plasmid (pNF κ B-Luc Reporter Plasmid; […]) integrated with an oligonucleotide having five tandem copies of NF-κ B binding sequences([…]) on a upstream region of firefly luciferase gene(Luc) according to the QIAGEN's protocol, and the cells were incubated for 6 to 24 hours. After addition of TNF-α (40 ng/ml) in the presence or absence of a test compound, the cells were incubated for 4 hours, and intracellular luciferase activity was measured by using PicaGene LT (TOYO INK MFG Co., Ltd.) and a chemical luminescence measurement apparatus ([…]luor Plus; TECAN). The inhibitory ratio was measured as a ratio relative to the value of the luciferase activity in the absence of the test compound.

| Compound | inhibition at 1 µg/mL (Drug concentration at 1 μg/mL) [%] | inhibition at 10 µg/mL (Drug concentration at 10 μg/mL) [%] | Inhibitory rate against NF-κB activation (%) (Drug concentration at 1 μg/mL) | Inhibitory rate against NF-κB activation (%) (Drug concentration at 10 μg/mL) |
| --- | --- | --- | --- | --- |
| CC(=O)Oc1ccccc1C(=O)Nc1cc(C(F)(F)F)cc(C(F)(F)F)c1 [compound 1, 2-acetoxy-N-[3,5-bis(trifluoromethyl)phenyl]benzamide] | 90.9 | 97.1 |  |  |
| O=C(Nc1cc(C(F)(F)F)cc(C(F)(F)F)c1)c1ccccc1O [compound 2] |  |  | 93.3 | 95.6 |
| O=C(Nc1cc(C(F)(F)F)cc(C(F)(F)F)c1)c1cc(F)ccc1O [compound 3] |  |  | 81.5 | 94.3 |
| CC(=O)Oc1ccc(Cl)cc1C(=O)Nc1cc(C(F)(F)F)cc(C(F)(F)F)c1 [compound 5] |  |  | 96.5 | 99.2 |
| O=C(Nc1cc(C(F)(F)F)cc(C(F)(F)F)c1)c1cc([N+](=O)[O-])ccc1O [compound 8, N-[3,5-bis(trifluoromethyl)phenyl]-2-hydroxy-5-nitrobenzamide] | 92 | 99.2 |  |  |
| N#Cc1ccc(O)c(C(=O)Nc2cc(C(F)(F)F)cc(C(F)(F)F)c2)c1 [compound 9, N-[3,5-Bis(trifluoromethyl)phenyl]-5-cyano-2-hydroxybenzamide] | 92.2 | 99.6 |  |  |
| Cc1ccc(O)c(C(=O)Nc2cc(C(F)(F)F)cc(C(F)(F)F)c2)c1 [compound 10] |  |  | 95.8 | 99.4 |
| CC(C)(C)c1ccc(O)c(C(=O)Nc2cc(C(F)(F)F)cc(C(F)(F)F)c2)c1 [compound 11, N-[3,5-Bis(trifluoromethyl)phenyl]-5-[(1,1-dimethyl)ethyl]-2-hydroxybenzamide] | 92.9 | 98.3 |  |  |
| CC(=O)c1ccc(O)c(C(=O)Nc2cc(C(F)(F)F)cc(C(F)(F)F)c2)c1 [compound 12, 5-Acetyl-N-[3,5-bis(trifluoromethyl)phenyl]-2-hydroxybenzamide] | 86.3 | 99.2 |  |  |
| CC(O)c1ccc(O)c(C(=O)Nc2cc(C(F)(F)F)cc(C(F)(F)F)c2)c1 (stereo not shown) [compound 13] |  |  | 76.8 | 96.0 |
| CON=C(C)c1ccc(O)c(C(=O)Nc2cc(C(F)(F)F)cc(C(F)(F)F)c2)c1 [compound 14] |  |  | 94.7 | 98.3 |
| CC(=NOCc1ccccc1)c1ccc(O)c(C(=O)Nc2cc(C(F)(F)F)cc(C(F)(F)F)c2)c1 [compound 15] |  |  | 94.5 | 99.2 |
| N#CC(C#N)=Cc1ccc(O)c(C(=O)Nc2cc(C(F)(F)F)cc(C(F)(F)F)c2)c1 [compound 16, N-[3,5-Bis(trifluoromethyl)phenyl]-5-(2,2-dicyanoethen-1-yl)-2-hydroxybenzamide] | 42.7 | 99.4 |  |  |
| COC(=O)C(C#N)=Cc1ccc(O)c(C(=O)Nc2cc(C(F)(F)F)cc(C(F)(F)F)c2)c1 [compound 17, 3-({N-[3,5-Bis(trifluoromethyl)phenyl]carbamoyl}-4-hydroxyphenyl)-2-cyanoacrylic acid methyl ester] |  |  | 74.9 | 99.1 |
| N#CC(=Cc1ccc(O)c(C(=O)Nc2cc(C(F)(F)F)cc(C(F)(F)F)c2)c1)C(=O)O [compound 18] |  |  | 59.7 | 98.5 |
| C[Si](C)(C)C#Cc1ccc(O)c(C(=O)Nc2cc(C(F)(F)F)cc(C(F)(F)F)c2)c1 [compound 20, N-[3,5-bis(trifluoromethyl)phenyl]-2-hydroxy-5-[(trimethylsilyl)ethynyl]benzamide] | 91.1 | 94.9 |  |  |

| Compound | inhibition at 1 µg/mL (Drug concentration at 1 μg/mL) [%] | inhibition at 10 µg/mL (Drug concentration at 10 μg/mL) [%] | Inhibitory rate against NF-κB activation (%) (Drug concentration at 1 μg/mL) | Inhibitory rate against NF-κB activation (%) (Drug concentration at 10 μg/mL) |
| --- | --- | --- | --- | --- |
| C#Cc1ccc(O)c(C(=O)Nc2cc(C(F)(F)F)cc(C(F)(F)F)c2)c1 [compound 21] |  |  | 53.3 | 90.1 |
| O=C(Nc1cc(C(F)(F)F)cc(C(F)(F)F)c1)c1cc(CCc2ccccc2)ccc1O [compound 24] |  |  | 92.3 | 98.3 |
| O=C(Nc1cc(C(F)(F)F)cc(C(F)(F)F)c1)c1cc(C(F)(F)F)ccc1O [compound 25] |  |  | 96.4 | 99.6 |
| O=C(Nc1cc(C(F)(F)F)cc(C(F)(F)F)c1)c1cc(C(F)(F)C(F)(F)F)ccc1O [compound 26] |  |  | 93.3 | 95.4 |
| O=C(Nc1cc(C(F)(F)F)cc(C(F)(F)F)c1)c1cc(-n2cccc2)ccc1O [compound 27] |  |  | 93.8 | 97.9 |
| O=C(Nc1cc(C(F)(F)F)cc(C(F)(F)F)c1)c1cc(-c2cccs2)ccc1O [compound 28] |  |  | 79.5 | 97.8 |
| Cc1nc(-c2ccc(O)c(C(=O)Nc3cc(C(F)(F)F)cc(C(F)(F)F)c3)c2)cs1 [compound 30, N-[3,5-Bis(trifluoromethyl)phenyl]-2-hydroxy-5-(2-methylthiazol-4-yl)benzamide] | 82.1 | 95.3 |  |  |
| O=C(Nc1cc(C(F)(F)F)cc(C(F)(F)F)c1)c1cc(-c2ccccn2)ccc1O [compound 32, N-[3,5-Bis(trifluoromethyl)phenyl]-2-hydroxy-5-(pyridin-2-yl)benzamide] | 90.4 | 99 |  |  |
| COc1ccc(O)c(C(=O)Nc2cc(C(F)(F)F)cc(C(F)(F)F)c2)c1 [compound 33] |  |  | 30.7 | 97.0 |
| CC(C)C(=O)c1ccc(O)c(C(=O)Nc2cc(C(F)(F)F)cc(C(F)(F)F)c2)c1 [compound 34, N-[3,5-Bis(trifluoromethyl)phenyl]-2-hydroxy-5-isobutyrylbenzamide] | 90.7 | 98.7 |  |  |
| COC(=O)c1ccc(O)c(C(=O)Nc2cc(C(F)(F)F)cc(C(F)(F)F)c2)c1 [compound 35, N-[3,5-bis(trifluoromethyl)phenyl]-4-hydroxyisophthalamic acid methyl ester] | 88.2 | 96.4 |  |  |
| O=C(Nc1cc(C(F)(F)F)cc(C(F)(F)F)c1)c1ccc(O)c(C(=O)Nc2cc(C(F)(F)F)cc(C(F)(F)F)c2)c1 [compound 37] |  |  |  | 94.5 |
| CN(C)C(=O)c1ccc(O)c(C(=O)Nc2cc(C(F)(F)F)cc(C(F)(F)F)c2)c1 [compound 38, N^3-[3,5-bis(trifluoromethyl)phenyl]-4-hydroxy-N^1,N^1-dimethylisophthalamide] | 16 | 87.1 |  |  |
| O=C(Nc1cc(C(F)(F)F)cc(C(F)(F)F)c1)c1cc(C(=O)N2CCCCC2)ccc1O [compound 39, N-[3,5-Bis(trifluoromethyl)phenyl]-2-hydroxy-5-(piperidine-1-carbonyl)benzamide] | 23.7 | 82.2 |  |  |
| CN(C)S(=O)(=O)c1ccc(O)c(C(=O)Nc2cc(C(F)(F)F)cc(C(F)(F)F)c2)c1 [compound 41, N-[3,5-Bis(trifluoromethyl)phenyl]-5-dimethylsufamoyl-2-hydroxybenzamide] |  |  | 42.2 | 95.9 |
